Source: patent EP2611798B1, “PYRIDAZINONES, METHOD OF MAKING, AND METHOD OF USE THEREOF” (Gilead Connecticut, Inc., priority 2010, dated 2012)

How the values were obtained:
[1] = system: production of CD69 by B lymphocytes in human whole blood; assay: CD69 Whole Blood Assay (Example 907); type: cell-based; conditions: Lymphocyte; human whole blood activated with goat F(ab')2 anti-human IgM, 20 hours; percent CD69 positive cells that are also CD20 positive
From the text: A CD69 Whole Blood Assay can be conducted on Formula I compounds to determine the ability of compounds to inhibit the production of CD69 by B lymphocytes in human whole blood activated by crosslinking surface IgM with goat F(ab')2 anti-human IgM (Example 907).
Human blood is obtained from healthy volunteers, with the following restrictions: 1 week drug-free, non-smokers. Blood (approximately 20 mls to test 8 compounds) is collected by venipuncture into Vacutainer® (Becton, Dickinson and Co.) tubes with sodium heparin.
Solutions of Formula I compounds at 10 mM in DMSO are diluted 1:10 in 100% DMSO, then are diluted by three-fold serial dilutions in 100% DMSO for a ten point dose-response curve. The compounds are further diluted 1:10 in PBS and then an aliquot of 5.5 µl of each compound is added in duplicate to a 2 ml 96-well plate; 5.5 µl of 10% DMSO in PBS is added as control and no-stimulus wells. Human whole blood - HWB (100 µl) is added to each well. After mixing the plates are incubated at 37 °C, 5% CO2, 100% humidity for 30 minutes. Goat F(ab')2 anti-human IgM (10 µl of a 500 µg/ml solution, 50 µg/ml final) is added to each well (except the no-stimulus wells) with mixing and the plates are incubated for an additional 20 hours. At the end of the 20 hour incubation, samples are incubated with fluorescent labeled antibodies for 30 minutes, at 37 °C, 5% CO2, 100% humidity. Include induced control, unstained and single stains for compensation adjustments and initial voltage settings. Samples are then lysed with PharM Lyse™ (BD Biosciences Pharmingen) according to the manufacturer's instructions. Samples are then transferred to a 96 well plate suitable to be run on the BD Biosciences HTS 96 well system on the LSRII machine. Data acquired and Mean Fluorescence Intensity values were obtained using BD Biosciences DIVA Software. Results are initially analyzed by FACS analysis software (Flow Jo). […] The IC50 values are calculated by Prism version 5, using a nonlinear regression curve fit.

[2] = biological target: T1, full length human wildtype Btk (Homo sapiens, UniProt Q06187); assay: Biochemical Btk Kinase Assay (Example 901); conditions: time-resolved fluorescence, final ATP concentration 40 µM; alternatively Lanthascreen assay, ATP 25 uM
T1 construct: V5 (C); 6xHis (C); made in house; host or cells: Sf9 insect cells (baculovirus, pFastBac)
T1 sequence (Q06187 whole entry): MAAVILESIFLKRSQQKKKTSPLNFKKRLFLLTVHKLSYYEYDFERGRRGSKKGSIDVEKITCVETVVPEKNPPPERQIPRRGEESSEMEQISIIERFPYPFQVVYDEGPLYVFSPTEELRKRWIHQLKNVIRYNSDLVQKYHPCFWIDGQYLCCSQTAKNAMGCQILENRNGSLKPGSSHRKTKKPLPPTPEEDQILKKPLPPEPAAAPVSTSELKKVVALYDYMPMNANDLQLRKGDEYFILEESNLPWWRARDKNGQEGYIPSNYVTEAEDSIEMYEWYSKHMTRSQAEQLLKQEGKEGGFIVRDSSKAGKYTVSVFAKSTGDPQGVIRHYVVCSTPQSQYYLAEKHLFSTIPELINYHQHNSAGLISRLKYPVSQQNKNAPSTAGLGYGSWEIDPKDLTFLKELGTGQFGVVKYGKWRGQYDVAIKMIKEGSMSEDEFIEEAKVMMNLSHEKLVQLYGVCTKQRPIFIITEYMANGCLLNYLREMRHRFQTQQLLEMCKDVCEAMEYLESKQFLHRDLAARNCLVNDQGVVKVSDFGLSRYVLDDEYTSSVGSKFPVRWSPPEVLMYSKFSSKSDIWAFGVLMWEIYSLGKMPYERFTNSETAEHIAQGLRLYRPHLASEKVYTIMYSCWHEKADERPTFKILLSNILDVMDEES
Experimental: Formula I compounds were tested by a standard biochemical Btk Kinase Assay (Example 901). A generalized procedure for a standard biochemical Btk Kinase Assay that can be used to test Formula I compounds is as follows. […] Btk enzyme is prepared as follows: full length human wildtype Btk (accession number NM-000061) with a C-terminal V5 and 6x His tag was subcloned into pFastBac vector for making baculovirus carrying this epitope-tagged Btk. Generation of baculovirus is done based on Invitrogen's instructions detailed in its published protocol "Bac-to-Bac Baculovirus Expression Systems" (Cat. Nos. 10359-016 and 10608-016). Passage 3 virus is used to infect Sf9 cells to overexpress the recombinant Btk protein. The Btk protein is then purified to homogeneity using Ni-NTA column. The purity of the final protein preparation is greater than 95% based on the sensitive Sypro-Ruby staining. A solution of 200 µM ATP is prepared in water and adjusted to pH7.4 with 1N NaOH. A quantity of 1.25 µL of compounds in 5%DMSO is transferred to a 96-well ½ area Costar polystyrene plate. Compounds are tested singly and with an 11-point dose-responsive curve (starting concentration is 10 µM; 1:2 dilution). A quantity of 18.75 µL of master mix minus enzyme (as a negative control) and master mix plus enzyme is transferred to appropriate wells in 96-well ½ area costar polystyrene plate. 5 µL of 200 µM ATP is added to that mixture in the 96-well ½ area Costar polystyrene plate for final ATP concentration of 40 µM. The reaction is allowed to incubate for 1 hour at room temperature. The reaction is stopped with Perkin Elmer 1X detection buffer containing 30 mM EDTA, 20 nM SA-APC, and 1 nM PT66 Ab. The plate is read using time-resolved fluorescence with a Perkin Elmer Envision using excitation filter 330 nm, emission filter 665 nm, and 2nd emission filter 615 nm. IC50 values are subsequently calculated. Alternatively, the Lanthascreen assay can be used to evaluate Btk activity through quantification of its phosphorylated peptide product. The FRET (Fluorescence Resonance Energy Transfer) that occurs between the fluorescein on the peptide product and the terbium on the detection antibody decreases with the addition of inhibitors of Btk that reduce the phosphorylation of the peptide. […] After incubation for 60 minutes at room temperature, the reaction is stopped by the addition of a final concentration of 2 nM Tb-PY20 detection antibody in 60 mM EDTA for 30 minutes at room temperature. Detection is determined on a Perkin Elmer Envision with 340 nm excitation and emission at 495 nm and 520 nm. Exemplary Btk inhibition IC50 values are in Tables and 2.

CD86 surface expression = assay: CD86 Inhibition Assay (Example 905), inhibition of B cell activity in total mouse splenocytes; type: cell-based, Balb/c mice; conditions: Splenocyte; total mouse splenocytes stimulated with 15 µg/ml IgM for 24 hr; gated on CD19+/7AAD- population
Experimental: A CD86 Inhibition assay can be conducted on Formula I compounds for the inhibition of B cell activity using total mouse splenocytes purified from spleens of 8-16 week old Balb/c mice (Example 905).
A generalized procedure for a standard assay for the inhibition of B cell activity that can be used to test Formula I compounds is as follows. Total mouse splenocytes are purified from spleens of 8-16 week old Balb/c mice by red blood cell lysis (BD Pharmingen #555899). Testing compounds are diluted to 0.5% DMSO and incubated with 1.25 x 10^6 splenocytes in a final volume of 200 µl in flat clear bottom plates (Falcon 353072) for 60 min at 37°C. Cells are then stimulated with the addition of 15 µg/ml IgM (Jackson ImmunoResearch 115-006-020), and incubated for 24 hr at 37°C, 5% CO2. Following the 24 hr incubation, cells are transferred to conical bottom clear 96-well plates and pelleted by centrifugation at 1200 x g x 5 min. Cells are preblocked by CD16/CD32 (BD Pharmingen #553142), followed by triple staining with CD19-FITC (BD Pharmingen #553785), CD86-PE (BD Pharmingen #553692), and 7AAD (BD Pharmingen #51-68981E). Cells are sorted on a BD FACSCalibur and gated on the CD19^+/7AAD^- population. The levels of CD86 surface expression on the gated population is measured versus test compound concentration. Exemplary results are in Table 3.

| IC50 [1] | EC50 (CD86 surface expression) | Compound | IC50 [2] |
| --- | --- | --- | --- |
| 101 nM | 211 nM | Cc1c(-c2cc(Nc3cc4n(n3)CCN(C)C4)c(=O)[nH]n2)cc(F)cc1N1Cc2cc(C(C)(C)C)sc2C1=O [Compound 122, 6-(3-{2-tert-butyl-6-oxo-4H,5H,6H-thieno[2,3-c]pyrrol-5-yl}-5-fluoro-2-methylphenyl)-4-({5-methyl-4H,5H,6H,7H-pyrazolo[1,5-a]pyrazin-2-yl}amino)-2,3-dihydropyridazin-3-one] |  |
| 147 nM |  | Cn1nc(-c2cccc(N3Cc4cc(C(C)(C)C)sc4C3=O)c2CO)cc(Nc2cc3n(n2)CCN(C2CC2)C3)c1=O [Compound 133, 6-(3-{2-tert-butyl-6-oxo-4H,5H,6H-thieno[2,3-c]pyrrol-5-yl}-2-(hydroxymethyl)phenyl)-4-({5-cyclopropyl4H,5H,6H,7H-pyrazolo[1,5-a]pyrazin-2-yl}amino)-2-methyl-2,3-dihydropyridazin-3-one] |  |
| 410 nM | 1200 nM | Cn1nc(-c2ccc(F)c(N3Cc4cc(C(C)(C)C)sc4C3=O)c2CO)cc(Nc2cc(C3CC3)[nH]n2)c1=O [Compound 142, 6-(3-{2-tert-butyl-6-oxo-4H,5H,6H-thieno[2,3-c]pyrrol-5-yl} -4-fluoro-2-(hydroxymethyl)phenyl)-4-[(5-cyclopropyl-1H-pyrazol-3-yl)amino]-2-methyl-2,3-dihydropyridazin-3-one] |  |

| Compound | IC50 [1] | EC50 (CD86 surface expression) | IC50 [2] |
| --- | --- | --- | --- |
| Cc1c(-c2cc(Nc3cc(C4CC4)[nH]n3)c(=O)[nH]n2)cccc1N1Cc2cc(C(C)(C)C)sc2C1=O [Compound 113, 6-(3-{2-tert-butyl-6-oxo-4H,5H,6H-thieno[2,3-c]pyrrol-5-yl}-2-methylphenyl)-4-[(5-cyclopropyl-1H-pyrazol-3-yl)amino]-2,3-dihydropyridazin-3-one] | 213 nM |  | 4 nM |
| CC(C)(C)c1cc2c(s1)C(=O)N(c1nc(-c3cc(Nc4cc(C5CC5)[nH]n4)c(=O)[nH]n3)ccc1F)C2 [Compound 116, 6-(6-{2-tert-butyl-6-oxo-4H,5H,6H-thieno[2,3-c]pyrrol-5-yl}-5-fluoropyridin-2-yl)-4-[(5-cyclopropyl-1H-pyrazol-3-yl)amino]-2,3-dihydropyridazin-3-one] | 2500 nM |  | 35 nM |
